# Measured values: patent US10222368B2 (priority 2012, dated 2019)
# Legend:
# α7nAChR-FLNA association = molecular target: T1, α7nAChR-FLNA association (Rattus norvegicus, UniProt A0A8I5ZV49); experiment: Rat frontal cortical synaptosomes treated with Aβ42, anti-FLNA immunoprecipitation / Western blot; format: cell-based; conditions: 0.1 or 1 nM compound, simultaneously with or 10 min prior to Aβ42
# T1 construct: from tissue; host or cells: rat frontal cortical synaptosomes
# Source text: The α7nAChR-FLNA complexes in the solubilized synaptosomes were immunoprecipitated with immobilized anti-FLNA and the α7nAChR and FLNA levels in the anti-FLNA immunoprecipitates determined by Western blotting (FIG. 14A) and quantified by densitometry for illustrative compounds (FIG. 14B). n=3. […] The letter designation “M” that accompanies many of the “C-series” compounds is omitted from FIG. 14, the remaining figures and most discussions of the figures and compounds hereinafter for ease in expression. Structural formulas of the compounds used in this and the other figures are provided hereinafter.
# The complexes in the solubilized synaptosomes, and α7nAChR, TLR4 and FLNA levels in the anti-FLNA immunoprecipitates were determined by Western blotting (FIG. 15A) in which numerals outside of and to the left of the blots are as discussed before. Amounts present in the blots were quantified by densitometry (FIG. 15B). […] Structural formulas of the compounds used in this and the other figures are provided hereinafter.
# mu opiate receptor (MOR) = molecular target: T2, mu opiate receptor (MOR) (Rattus norvegicus, UniProt P33535); experiment: MOR agonist activity using [35S]GTPγS binding assay in striatal membranes; format: biochemical; conditions: for MOR agonist activity ([35S]GTPγS binding to Gαo), preliminary study: average of two runs
# T2 construct: from tissue; host or cells: striatal tissue (membrane preparation)
# Experimental: To assess the mu opiate receptor (MOR) agonist activity of positive compounds from the FLNA screening, compounds were tested in a [^35S]GTPγS binding assay using striatal membranes. […] This assay measures a functional consequence of receptor occupancy at one of the earliest receptor-mediated events. The assay permits for traditional pharmacological parameters of potency, efficacy and antagonist affinity, with the advantage that agonist measures are not subjected to amplification or other modulation that may occur when analyzing parameters further downstream of the receptor.
# Thus, striatal tissue was homogenized in 10 volumes of ice cold 25 mM HEPES buffer, pH 7.4, which contained 1 mM EGTA, 100 mM sucrose, 50 μg/ml leupeptin, 0.04 mM PMSF, 2 μg/ml soybean trypsin inhibitor and 0.2% 2-mercaptoethanol. The homogenates were centrifuged at 800×g for 5 minutes and the supernatants were centrifuged at 49,000×g for 20 minutes.
# The resultant striatal membrane preparation (200 μg) was admixed and maintained (incubated) at 30° C. for 5 minutes in reaction buffer as above that additionally contained 1 mM MgCl2 and 0.5 nM [^35S]GTPγS (0.1 μCi/assay, PerkinElmer Life and Analytical Sciences) in a total volume of 250 μl and continued for 5 minutes in the absence or presence of 0.1-10 μM of an assayed compound of interest. The reaction was terminated by dilution with 750 μl of ice-cold reaction buffer that contained 20 mM MgCl2 and 1 mM EGTA and immediate centrifugation at 16,000×g for 5 minutes.
# Normal rabbit serum (1 μl) was added to 1 ml of lysate and incubated at 25° C. for 30 minutes. Nonspecific immune complexes were removed by incubation with 25 μl of protein A/G-conjugated agarose beads at 25° C. for 30 minutes followed by centrifugation at 5,000×g at 4° C. for 5 minutes. The supernatant was divided and separately incubated at 25° C. for 30 minutes with antibodies raised against Gαo proteins (1:1,000 dilutions).
# The immunocomplexes so formed were collected by incubation at 25° C. for 30 minutes with 40 μl of agarose-conjugated protein A/G beads and centrifugation at 5,000×g at 4° C. for 5 minutes. The pellet was washed and suspended in buffer containing 50 mM Tris-HCl, pH 8.0, and 1% NP-40. The radioactivity in the suspension was determined by liquid scintillation spectrometry.
# [1] = molecular target: FLNA pentapeptide VAKGL (SEQ ID NO: 1) (Homo sapiens, UniProt P21333); experiment: FITC-NLX-based FLNA screening assay; format: binding; conditions: for inhibition at 0.0001 µM: 0.1 nM compound; for inhibition at 0.0001 µM / inhibition at 0.001 µM / inhibition at 0.01 µM / inhibition at 0.1 µM / inhibition at 1 µM: 100 nM frozen-stored FITC-NLX, average of two runs, read-out: Percent inhibition of FITC-NLX binding, preliminary study; for inhibition at 0.001 µM: 1 nM compound; for inhibition at 0.01 µM: 10 nM compound; for inhibition at 0.1 µM: 100 nM compound; for inhibition at 1 µM: 1 μM compound; for Percent Binding Inhibition (FITC-NLX binding to Bn-VAKGL): 10 nM FITC-NLX
# T2 sequence (P33535 whole entry): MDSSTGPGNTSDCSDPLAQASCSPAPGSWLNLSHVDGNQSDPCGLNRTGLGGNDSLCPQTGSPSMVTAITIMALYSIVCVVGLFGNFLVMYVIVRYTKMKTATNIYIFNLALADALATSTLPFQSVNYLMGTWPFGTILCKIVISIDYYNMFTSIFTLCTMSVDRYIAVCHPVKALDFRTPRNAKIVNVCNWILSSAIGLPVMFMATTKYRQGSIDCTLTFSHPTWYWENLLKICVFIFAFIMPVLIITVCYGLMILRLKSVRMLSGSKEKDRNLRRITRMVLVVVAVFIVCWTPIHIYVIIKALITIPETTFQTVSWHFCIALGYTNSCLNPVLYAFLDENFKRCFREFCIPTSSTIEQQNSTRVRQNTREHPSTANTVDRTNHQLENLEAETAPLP
# T1 sequence (A0A8I5ZV49 1-2647): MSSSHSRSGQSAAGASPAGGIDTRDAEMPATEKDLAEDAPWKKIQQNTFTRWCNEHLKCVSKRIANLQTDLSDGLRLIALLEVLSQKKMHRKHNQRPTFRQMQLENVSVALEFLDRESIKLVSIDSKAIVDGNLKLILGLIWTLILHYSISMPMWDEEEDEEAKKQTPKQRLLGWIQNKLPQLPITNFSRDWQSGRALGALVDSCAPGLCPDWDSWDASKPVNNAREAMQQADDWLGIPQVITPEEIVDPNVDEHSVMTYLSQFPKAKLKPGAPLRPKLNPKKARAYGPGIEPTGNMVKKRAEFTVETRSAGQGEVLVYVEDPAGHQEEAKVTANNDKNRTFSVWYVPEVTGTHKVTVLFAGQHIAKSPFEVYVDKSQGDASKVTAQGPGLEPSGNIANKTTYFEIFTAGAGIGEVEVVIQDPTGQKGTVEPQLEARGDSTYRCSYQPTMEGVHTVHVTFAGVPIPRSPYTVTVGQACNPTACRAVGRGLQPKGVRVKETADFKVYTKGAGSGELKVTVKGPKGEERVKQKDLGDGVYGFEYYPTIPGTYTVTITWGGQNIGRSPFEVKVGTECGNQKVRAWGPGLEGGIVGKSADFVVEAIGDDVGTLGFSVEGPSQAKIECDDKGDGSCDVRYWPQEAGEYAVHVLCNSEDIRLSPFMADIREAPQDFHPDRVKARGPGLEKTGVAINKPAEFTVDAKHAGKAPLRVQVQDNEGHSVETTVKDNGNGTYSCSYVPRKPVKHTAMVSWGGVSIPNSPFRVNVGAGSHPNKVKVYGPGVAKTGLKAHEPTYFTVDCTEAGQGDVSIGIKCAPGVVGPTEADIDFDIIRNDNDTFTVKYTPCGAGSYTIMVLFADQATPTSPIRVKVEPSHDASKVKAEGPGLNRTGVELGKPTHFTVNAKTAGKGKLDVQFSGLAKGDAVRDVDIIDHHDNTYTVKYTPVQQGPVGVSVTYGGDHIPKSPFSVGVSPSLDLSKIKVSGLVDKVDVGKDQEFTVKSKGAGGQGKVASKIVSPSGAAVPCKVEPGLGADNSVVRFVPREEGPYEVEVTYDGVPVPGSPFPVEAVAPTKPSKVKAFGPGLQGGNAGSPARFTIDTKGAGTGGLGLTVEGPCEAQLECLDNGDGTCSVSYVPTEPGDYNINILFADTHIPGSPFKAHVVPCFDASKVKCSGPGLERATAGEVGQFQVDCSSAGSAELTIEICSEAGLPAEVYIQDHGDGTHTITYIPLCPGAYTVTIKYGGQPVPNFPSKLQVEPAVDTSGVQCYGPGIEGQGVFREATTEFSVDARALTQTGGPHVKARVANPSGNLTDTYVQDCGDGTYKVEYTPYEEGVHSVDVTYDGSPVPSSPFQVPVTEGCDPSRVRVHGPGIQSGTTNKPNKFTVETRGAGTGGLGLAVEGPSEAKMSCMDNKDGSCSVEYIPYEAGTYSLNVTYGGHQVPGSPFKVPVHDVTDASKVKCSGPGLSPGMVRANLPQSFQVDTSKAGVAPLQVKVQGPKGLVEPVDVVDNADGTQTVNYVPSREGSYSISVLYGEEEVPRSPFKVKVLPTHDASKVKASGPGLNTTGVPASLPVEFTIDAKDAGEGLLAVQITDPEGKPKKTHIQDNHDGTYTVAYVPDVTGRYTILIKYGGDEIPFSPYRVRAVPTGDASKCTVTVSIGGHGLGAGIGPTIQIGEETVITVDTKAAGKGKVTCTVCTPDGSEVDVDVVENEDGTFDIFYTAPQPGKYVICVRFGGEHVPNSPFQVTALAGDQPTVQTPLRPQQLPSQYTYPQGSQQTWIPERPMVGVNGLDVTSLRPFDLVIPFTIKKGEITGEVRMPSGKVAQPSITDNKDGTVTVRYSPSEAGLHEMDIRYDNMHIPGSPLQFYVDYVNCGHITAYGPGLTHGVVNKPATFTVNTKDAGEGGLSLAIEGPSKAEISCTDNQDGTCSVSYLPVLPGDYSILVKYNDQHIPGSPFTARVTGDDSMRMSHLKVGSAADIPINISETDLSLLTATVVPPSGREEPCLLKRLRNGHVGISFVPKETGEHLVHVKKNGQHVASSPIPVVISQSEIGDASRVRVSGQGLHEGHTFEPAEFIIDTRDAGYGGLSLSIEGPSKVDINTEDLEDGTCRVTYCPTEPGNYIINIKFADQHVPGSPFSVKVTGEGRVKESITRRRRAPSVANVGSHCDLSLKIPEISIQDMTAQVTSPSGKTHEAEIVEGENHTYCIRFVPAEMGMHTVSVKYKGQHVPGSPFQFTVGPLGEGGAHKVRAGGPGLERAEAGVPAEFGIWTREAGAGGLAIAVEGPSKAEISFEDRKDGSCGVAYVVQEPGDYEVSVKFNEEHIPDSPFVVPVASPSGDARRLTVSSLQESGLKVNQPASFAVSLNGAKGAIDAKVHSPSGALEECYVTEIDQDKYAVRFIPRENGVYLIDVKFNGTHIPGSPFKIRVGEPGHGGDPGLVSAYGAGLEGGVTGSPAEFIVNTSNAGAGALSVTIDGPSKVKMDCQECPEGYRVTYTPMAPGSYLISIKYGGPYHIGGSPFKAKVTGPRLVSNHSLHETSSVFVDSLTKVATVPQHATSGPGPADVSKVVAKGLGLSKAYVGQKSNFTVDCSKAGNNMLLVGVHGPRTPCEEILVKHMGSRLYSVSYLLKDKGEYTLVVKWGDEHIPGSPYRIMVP
compound,measurement,setting,value
"C=CCN1CC[C@]23c4c5ccc(O)c4O[C@H]2C(=O)CC[C@]3(O)[C@H]1C5 [(+) NLX, (+)naloxone, reference compound]",Effect on Aβ42-induced α7nAChR-FLNA association (in words),α7nAChR-FLNA association,reduce α7nAChR-FLNA association
C=CCN1CCC2(CC1)OCCN2S(=O)(=O)c1ccc(C)cc1 [Compound 10],"MOR agonist activity ([35S]GTPγS binding to Gαo), preliminary study",mu opiate receptor (MOR); 0.1 μM compound as agonist,163.1%
same,"MOR agonist activity ([35S]GTPγS binding to Gαo), preliminary study",mu opiate receptor (MOR); 1 μM + βNFA,60.4%
same,"MOR agonist activity ([35S]GTPγS binding to Gαo), preliminary study",mu opiate receptor (MOR); 1 μM compound as agonist,191.8%
same,inhibition at 0.0001 µM,[1],27.5%
same,inhibition at 0.001 µM,[1],27.3%
same,inhibition at 0.01 µM,[1],26.6%
same,inhibition at 0.1 µM,[1],27.3%
same,inhibition at 1 µM,[1],34.5%
"CN1CC[C@]23c4c5ccc(O)c4O[C@H]2[C@@H](O)C=C[C@H]3[C@H]1C5 [morphine, reference compound]",Binding to the FLNA pentapeptide of SEQ ID NO: 1 (in words),[1],do not bind
CN1CCC2(CC1)NCC(=O)N2Cc1ccccc1 [Compound C0105M],Effect on Aβ42-induced α7nAChR-FLNA association (in words),α7nAChR-FLNA association,reduce α7nAChR-FLNA association
same,"MOR agonist activity, [35S]GTPγS binding, FLNA-binding compound as agonist at 0.1 μM","mu opiate receptor (MOR); 0.1 μM compound, striatal membranes, Series C-2",198.1%
same,"MOR agonist activity, [35S]GTPγS binding, 1 μM + BFNA","mu opiate receptor (MOR); 1 μM compound + 1 μM β-FNA (MOR antagonist), striatal membranes",73.1%
same,"MOR agonist activity, [35S]GTPγS binding, FLNA-binding compound as agonist at 1 μM","mu opiate receptor (MOR); 1 μM compound, striatal membranes, Series C-2",220.3%
COc1ccc(OCC(O)CN2CCc3ccccc3C2)cc1 (stereo not drawn) [Compound A0053],Effect on Aβ42-induced α7nAChR-FLNA association (in words),α7nAChR-FLNA association,reduce α7nAChR-FLNA association
Cc1ccc(S(=O)(=O)N2CCOC23CCN(CC2CCC2)CC3)cc1 [Compound 9],"MOR agonist activity ([35S]GTPγS binding to Gαo), preliminary study",mu opiate receptor (MOR); 0.1 μM compound as agonist,156.6%
same,"MOR agonist activity ([35S]GTPγS binding to Gαo), preliminary study",mu opiate receptor (MOR); 1 μM + βNFA,56.6%
same,"MOR agonist activity ([35S]GTPγS binding to Gαo), preliminary study",mu opiate receptor (MOR); 1 μM compound as agonist,197.2%
same,inhibition at 0.0001 µM,[1],22.5%
same,inhibition at 0.001 µM,[1],24.8%
same,inhibition at 0.01 µM,[1],27.7%
same,inhibition at 0.1 µM,[1],35.3%
same,inhibition at 1 µM,[1],49.6%
O=S(=O)(c1ccc(OC(F)(F)F)cc1)N1CCOC12CCN(CC1CC1)CC2 [Compound 4],"MOR agonist activity ([35S]GTPγS binding to Gαo), preliminary study",mu opiate receptor (MOR); 0.1 μM compound as agonist,133.9%
same,"MOR agonist activity ([35S]GTPγS binding to Gαo), preliminary study",mu opiate receptor (MOR); 1 μM + βNFA,49.5%
same,"MOR agonist activity ([35S]GTPγS binding to Gαo), preliminary study",mu opiate receptor (MOR); 1 μM compound as agonist,165.2%
same,inhibition at 0.0001 µM,[1],18.8%
same,inhibition at 0.001 µM,[1],21.3%
same,inhibition at 0.01 µM,[1],17.9%
same,inhibition at 0.1 µM,[1],28.8%
same,inhibition at 1 µM,[1],42.9%
Nalbuphine [reference compound],Binding to the FLNA pentapeptide of SEQ ID NO: 1 (in words),[1],bind well
CC1CCC(C(C)C)C(OCC(CN2CC(C)OC(C)C2)NCc2ccccc2)C1 (stereo not drawn) [Compound A0033],Effect on Aβ42-induced α7nAChR-FLNA association (in words),α7nAChR-FLNA association,reduce α7nAChR-FLNA association
O=C1CNC2(CCN(S(=O)(=O)c3ccc(O)cc3)CC2)N1Cc1ccccc1 [Compound C0148M],Percent Binding Inhibition (FITC-NLX binding to Bn-VAKGL),[1]; 0.01 μM FLNA-binding compound,46.2%
same,Percent Binding Inhibition (FITC-NLX binding to Bn-VAKGL),[1]; 0.1 μM FLNA-binding compound,52.0%
same,Percent Binding Inhibition (FITC-NLX binding to Bn-VAKGL),[1]; 1 μM FLNA-binding compound,57.0%
CC1CCC(C(C)C)C(OCC(O)CN2CCCc3ccccc32)C1 (stereo not drawn) [Compound A0068],Effect on Aβ42-induced α7nAChR-FLNA association (in words),α7nAChR-FLNA association,reduce α7nAChR-FLNA association
CC1CCC(C(C)C)C(OCC(O)CN2CCc3ccccc3C2)C1 (stereo not drawn) [Compound A0040],Effect on Aβ42-induced α7nAChR-FLNA association (in words),α7nAChR-FLNA association,reduce α7nAChR-FLNA association
Nalorphine [reference compound],Binding to the FLNA pentapeptide of SEQ ID NO: 1 (in words),[1],bind well
